Data on two compounds can be found in US8258119B2, “Anti-cancer drugs and uses relating thereto for metastatic malignant melanoma and other cancers” (Kasina Laila Innova Pharmaceuticals, priority 2008, dated 2012).

≈ marks a conversion by molar mass, not a printed value.

Data set [1] has as its system Vascular Endothelial Growth Factor (VEGF). The experiment in a line: VEGF expression in B16F0 cells by western blot. The class given is cell-based, mouse. The settings on record: 50 μg/ml, 24 h. The procedure: B16F0 cells were cultivated in Dulbecco's modified Eagle's red medium (DMEM) (Sigma Life Science, USA) containing 10% fetal bovine serum (FBS) and 4.5 g/l D-glucose. Equal number cells (5×10^4) were seeded in culture dishes (35×10 mm, 11.7 cm^2). The cells were treated with either 50 μg/ml of DTIC or […] for 24 h. The cells incubated with only 0.1% DMSO was considered as vehicle control. After 24 h, the cell lysates were prepared and analyzed for Vascular Endothelial Growth Factor (VEGF) expression by western blot assay as described earlier with appropriate modifications (43).
For Western blot analyses, equal amount of B16F0 cell lysate proteins were separated in 12.5% SDS-PAGE under reducing conditions, and transferred onto nitrocellulose membranes (Bio-Rad, USA). The membranes were blocked with SuperBlock (Thermo scientific, USA) and subsequently reacted with VEGF antibody (Abeam, UK) at 4° C. overnight. Bound antibodies were probed with horseradish peroxidase conjugated secondary antibody and the specific immunoreactions were developed with enhanced chemiluminescence (Thermo scientific, USA). […] The images of immunoreactive bands were captured in Kodak Image Station 4000MM (Carestream Health Inc., New Haven, Conn.) and analyzed densitometrically by Kodak molecular Imaging software, Version 4.5.

Data set [2] deals with A375 human melanoma cells. The data set can be described thus: MTT cell proliferation assay in A375 cells. The settings on record: A-375, 72 h, 3 days, read-out: 50% of inhibitory concentration, IC50 in A375 cells. The class given is cell-based. As to the method:
MTT [3-(4,5-dimethylthiazol-2-yl)-2,5-diphenyltetrazolium bromide] incorporation based cell proliferation assay was performed using standard procedure with some modifications (38). The cytotoxic efficacy of the test compounds were evaluated in human malignant melanoma A2058 cells by MTT cell proliferation assay kit (Roche Applied Sciences, Germany). The assay was carried out according to the instruction provided by the vendor. Briefly, equal numbers of cells was plated in 96-well flat-bottomed plates in 100 μl of medium and were exposed to either DTIC or its derivative compounds at various concentrations up to 150 μg/ml for a period of three days. Vehicle control culture wells received only a maximum of 0.5% DMSO. […] After complete solubilization of the formazan crystals the absorbance was read at 540 nm in a microplate reader (BioRad, USA). […]
The comparative anti-tumor growth potential of DTIC and Compound 6 was further tested in B16F0 mouse melanoma cells and A375 human melanoma cells by using MTT based cell proliferation assay following the methodology described earlier (Example 19). […] After adding the MTT reagent, the cells were solubilized and the intracellular formazan formation was calorimetrically read at 540 nm in a microplate reader (BioRad, USA). […]

A further data set deals with B16 F0 melanoma. The data set can be described thus: B16 F0 melanoma xenograft model of C57B6J mice. The class given is in vivo. Conditions: for dose response of tumor growth inhibition: two dose levels (50 and 100 mg/kg), intra-peritoneal. As to the method:
[…] mice of 6 weeks age (body weight 18-22 g) were purchased from National Institute of Nutrition (NIN), Hyderabad (India). Animals study protocols were approved by Institutional Ethics Committee (IAEC). All the studies were performed in compliance with the Committee for the Purpose of Control and Supervision of Experiments on Animals (CPCSEA) guidelines and OECD guidelines. Animals were allowed free access to standard feed and provided charcoal filtered and UV exposed water ad libitum. The animals were maintained at a controlled temperature (24-26° C.), humidity (45-70%), and 12 h/12 h of light/dark cycle. To induce the melanoma tumor formation, sub-confluent B16F0 cells were harvested by brief trypsinization and 1×10^6 cells were injected subcutaneously in 0.2 ml phosphate-buffered saline. Drug treatment was started after development of palpable tumors (3-5 days after implantation of the cells). […] After fourteen days of treatment, the animals were sacrificed by CO2 inhalation and tumors were excised and weighed.

For data set [3] the following is noted: at therapeutic concentrations; cited from earlier work.
Data set [4] deals with metastatic malignant melanoma. Conditions: clinical setting; cited from earlier work.
Data set [5] deals with normal human skin epithelial HS.531.sk cells. The experiment in a line: LDH leakage assay on normal skin cells (tumor selectivity). It counts as cell-based. As to the method:
From the data obtained from the MTT assay (Table J), compound 1, compound 6 and compound 13 have been selected and their cytotoxicity potential has been further validated in LDH leakage assay. […] Cytotoxicity potential of DTIC and its derivative compounds were evaluated by measuring the leaked lactate dehydrogenase (LDH) into the culture supernatant (LDH Cytotoxicity Detection Roche Applied Sciences, Germany). The leaked LDH is directly proportional to the cell damage done by the cytotoxic compounds. In brief, cells were treated with test compounds at various concentrations and incubated for 48 h. Vehicle control culture wells received only a maximum of 0.5% DMSO. The cell free culture supernatants were mixed with catalyst and dye solution and allowed to incubate for 15 min at room temperature. Finally, the reaction was stopped and the optical density was measured at 492 nm in a microplate reader (BioRad, USA). The results (mean OD±SD) obtained from quadruplicate wells were used in calculation to determine the cytotoxicity potential (50% of inhibitory concentration, IC50) of the test compounds. A plot of loss of cell viability as indicated by the leakage of LDH versus drug concentration is depicted in FIG. 1.
Next, to check whether the DTIC derivative compounds can selectively kill the melanoma cells without or minimally affecting the normal cells, we assessed the effect of the test compounds on normal human skin epithelial HS.531.sk cells. […] Whereas, 120 μg/ml of DTIC, compound 1, […] caused 5.8%, 4.2%, 2.4%, and 2.4% reduction in normal cell viability, respectively.

For the compound `CN(C)/N=N/c1ccsc1C(=O)O` [Compound 6, 3-[(dimethylamino)diazenyl]thiophene-2-carboxylic acid], the VEGF protein expression result in data set [1] was “down regulation of VEGF protein”. Besides, in data set [2], the IC50 is 46.5 µg/mL (≈ 233 µM). Also, the anti-tumor activity entry in the data set with B16 F0 melanoma (daily intra-peritoneal, fourteen days, tumor weight) was “better anti-tumor activity than DTIC”. The “dose response of tumor growth inhibition” value in the data set with B16 F0 melanoma is recorded as “dose response inhibition at the two dose levels tested”.

For `CN(C)/N=N/c1[nH]cnc1C(N)=O` [DTIC, 5-(3,3-dimethyl-1-trizeno)-imidazole-4-carboxamide, reference compound], in the data set with B16 F0 melanoma, the “dose response of tumor growth inhibition” value is recorded as “failed to show statistically significant dose response”. Also, the “binding to human plasma protein” value in data set [3] is on record as “not appreciably bound”. Also, the “Complete Response (CR) rate” value in data set [4] is on record as “below 10%”. In data set [5] (120 μg/ml), the “reduction in normal cell viability” value is recorded as 5.8%. The “effect on normal skin cell growth” value in data set [5] (up to 100 μg/ml) is reported as “do not affect the normal cell skin cell growth”.
